Usually pIC50 stands for −log10 of the IC50, conventionally taken in molar units. The term half-life denotes the time in which the quantity being followed falls by half.

Each structure is given as a SMILES string. pIC50: −log10 of the molar value.

The values that follow come from patent US20250145637A1, “SULFONAMIDE DERIVATIVE, PREPARATION METHOD THEREFOR AND MEDICAL USE THEREOF” (Jiangsu Hengrui Pharmaceuticals Co. Ltd., priority 2021, published 2025).

Series [1] concerns the target human KAT6A (Homo sapiens (Human), UniProt Q92794). In words: KAT6 enzyme activity assay (AlphaScreen method), KAT6A. It counts as biochemical. Particulars: inhibition of the enzyme human KAT6A. An excerpt: Test Example 1: KAT6 Enzyme Activity Assay (AlphaScreen Method)
I. Reagents and instrument • 1. KAT6A (customized by Chempartner) • 2. Ovalbumin (Sigma-Aldrich, A5378-5G) • 3. 2 M Tris-HCl solution, pH 7.8, sterile (Sangon, B548140-0500) • 4. 5 M NaCl solution (Sangon, B548121-0100) • 5. EDTA (0.5 M), pH 8.0, RNase-free (Thermofisher, AM9260G) • 6. Tween-20 (Sangon, A100777-0500) • 7. DTT, 1 M (Invitrogen, P2325) • 8. Acetyl coenzyme A (Ac-CoA, CAYMAN, Cat. No. 16160) • 9. Recombinant histone H3.1 biotinylated (human) (Active Motif 31696) • 10. 384-well plate, light gray (Perkin Elmer, Cat. No. 6005350) • 11. Anacardic acid (MCE, Cat. No. HY—N2020) • 12. AlphaScreen streptavidin donor beads, 5 mg (PerkinElmer, 6760002) • 13. AlphaScreen protein A acceptor beads, 5 mg (PerkinElmer, 6760137M) • 14. Acetylated-lysine antibody #9441 (CST 9441S) • 15. PHERA star microplate reader (BMG labtech) • II. Experimental method
a. 1× assay buffer: 100 mM Tris-HCl, pH 7.8; 15 mM NaCl; 1 mM EDTA; 0.01% tween-20; 1 mM DTT; 0.01% m/v ovalbumin.
b. KAT enzyme solution: 1.25 nM (final concentration), prepared in 1× assay buffer.
c. Mixed substrate of Ac-CoA and H3: a mixed substrate of 1000 nM (final concentration) Ac-CoA and 55 nM (final concentration) H3, prepared in 1× assay buffer.
d. Compounds: initial concentration of 100 μM, 3-fold dilution, 10 gradient concentrations. All compound concentrations were diluted 83-fold with 1× assay buffer for later use.
e. Assay reagent: 8 ng/μL (final concentration) AlphaScreen protein A acceptor beads, 8 ng/μL AlphaScreen streptavidin donor beads, 1:1500 diluted acetylated-lysine antibody, and 100 μM anacardic acid; prepared in 1× assay buffer.
2. Experimental Procedure
a. The prepared enzyme solution was added to a 384-well plate at 3 μL/well, and 3 μL of 1× assay buffer was added to each well in columns 23 and 24 (Min).
b. 3 μL of compound solution was added to each well, and 3 μL of buffer was added to each Min well; 3 μL of DMSO solution was added to each well in columns 1 and 2 (Max) as controls. The plate was centrifuged, shaken for 2 min, and incubated at room temperature for 15 min.
c. The mixed substrate of Ac-CoA and H3 was added at 6 μL/well, and the plate was centrifuged, shaken for 2 min, and incubated at room temperature for 20 min.
d. The assay reagent was added at 6 μL/well, and the plate was centrifuged, shaken for 2 min, and incubated in the dark at room temperature for 120 min.
e. Plate reading was performed on the microplate reader, and AlphaScreen counts were recorded.
f. Plotting was performed using the Graphpad software, and the IC50 values of the compounds were calculated.
For orientation: In Alpha technology, singlet oxygen from a donor bead excites a nearby acceptor bead.

Series [2] has as its system ZR-75-1. Kind of series: ZR-75-1 proliferation assay (CellTiter-Glo, day 14). Format: cell-based. The settings on record: Homo sapiens, 336 h, CTG assay day 14. An excerpt: Test Example 4: ZR-75-1 Proliferation Assay
I. Reagents and Instruments
• 1. ZR-75-1 (ATCC CRL1500) • 2. 1640 medium (Gibco, 22400-089) • 3. 0.25% trypsin-EDTA (1×) (Gibco, 25200-072) • 4. Penicillin-streptomycin (Gibco, 15140-122) • 5. DPBS (1×) (Gibco, 14190-144) • 6. FBS (Gibco, 10091148) • 7. Assay plate, 96-well, black with clear bottom (Corning, 3603) • 8. 96-well non-treated round-bottom plate (JET BIOFIL, TCP-002-096) • 9. CellTiter-Glo buffer (Promega, G756B) • 10. CellTiter-Glo substrate (Promega, G755B) • 11. Automatic cell counter (Countstar, IC1000) • 12. Thermostatic incubator (Thermo, 1160) • 13. PHERAstar FS (BMG labtech, PHERAstar FS)
a. The state of cells was observed under a microscope to make sure that the cell confluence was about 90%.
b. The cell supernatant was discarded. The cells were rinsed with DPBS once, and the DPBS was removed. The cells were digested with a proper amount of trypsin and left to stand at 37° C. for 5 min.
c. The digestion was stopped with an equal volume of 1640 medium containing 10% FBS, and the cell suspension was collected and centrifuged at 300 g for 3 min. The cells were suspended in a proper amount of fresh medium.
d. The resulting cell suspension was collected and cell counting was performed.
e. The cell suspension was diluted to 5×10^4/mL, 50 μL/well with 1640 medium containing 10% FBS. Each well contained 2500 ZR-75-1 cells.
f. The cell culture plates were incubated overnight in a 37° C., 5% carbon dioxide incubator.
2. Compound Addition (Day 1)
a. Each compound was serially diluted in DMSO to 9 concentration points (initial concentration of 100 μM, 3-fold dilution; the highest concentration of each compound may be adjusted depending on its IC50). For example, in a 96-well non-treated round-bottom plate, 3 μL of compound was serially diluted in 6 μL of DMSO.
b. Each concentration point of each compound was diluted 500-fold in the corresponding volume of 1640 medium.
c. 50 μL of diluted compound solution was added to the cell supernatant (50 μL/well) in each cell plate.
d. After the addition, the cell plates were incubated in a 37° C., 5% carbon dioxide incubator.
3. The Cells were Re-Digested and Plated, and the Compounds were Added (Day 7).
a. Six days after the addition, the compound-containing medium was discarded. Then the cells were rinsed with DPBS (150 μL/well), and the DPBS was immediately pipetted off.
b. The cells were digested with 50 μL of trypsin and left to stand at 37° C. for 3 min, and then the digestion was stopped with 1640 medium containing 10% FBS (150 μL/well).
c. The cells were well mixed using a pipette and re-plated at a ratio of 1:8; that is, 25 μL of cell suspension was pipetted into a new 96-well plate (25 μL of 1640 medium containing 10% FBS had been added to the new plate in advance).
d. Compound solution preparation and addition (50 μL/well) were performed according to steps a to c in 2.
e. After the addition, the cell plates were incubated in a 37° C., 5% carbon dioxide incubator.
a. CellTiter-Glo buffer and lyophilized CellTiter-Glo substrate were equilibrated to room temperature before use and were well mixed to prepare a 100-mL CellTiter-Glo reagent (or a prepared CellTiter-Glo reagent was removed from a −20° C. freezer and equilibrated to room temperature).
b. The plates to be tested were removed from the incubator and equilibrated to room temperature, and the CellTiter-Glo reagent was added at 50 μL/well.
c. The plates were shaken for 2 min so that the cells were completely lysed.
d. After the plates were left to stand at room temperature for 28 min and signals were stable, the plates were tested on PHERAstar FS.

Series [3] can be described thus: Pharmacokinetic evaluation in SD rats. Particulars: both sexes, rat, plasma, po, i.g., 2.0 mg/kg. Format: in vivo. The method, then:
Test Example 5: Pharmacokinetic Evaluation
SD rats were used as test animals. After intragastric (i.g.) administration of the compounds of the present disclosure to SD rats, the plasma concentrations at different time points were measured by the LC/MS/MS method. The pharmacokinetic behavior of the compounds of the present disclosure in SD rats was studied, and their pharmacokinetic profiles were evaluated.
Compound 2, compound 7, compound 21, and compound 23.
16 SD rats, of which half were male and half female, were evenly divided into 4 groups. The rats were provided by Vital River Laboratory Animal Technology Co., Ltd. The rats were fasted overnight and intragastrically administered the compounds.
2.3. Compound Solution Preparation
A certain amount of test compound was weighed out and dissolved in 5% DMSO+5% tween 80+90% normal saline to prepare a 0.2 mg/mL colorless clear solution.
The dose administered was 2.0 mg/kg, and the volume was 10.0 mL/kg.
0.1 mL blood samples were collected from the orbit before the administration and 0.25 h, 0.5 h, 1.0 h, 2.0 h, 4.0 h, 6.0 h, 8.0 h, 11.0 h and 24.0 h post-dose. The blood samples were placed into EDTA-K2 anticoagulation tubes and centrifuged at 10,000 rpm for 1 min (4° C.), and plasma was separated within 1 h and stored at −20° C. before analysis. The process from the blood collection to the centrifugation was performed in an ice bath. Access to food was given 2 h post-dose.
Measurement of plasma concentrations in SD rats after compounds were administered in different concentrations: 25 μL samples of the SD rat plasma collected at various time points post-dose were taken, and to each of the samples was added 25 μL of camptothecin (an internal standard for compound 2, 100 ng/mL) or 50 μL of tolbutamide (an internal standard for compound 7, 100 ng/mL) or 50 μL of verapamil (an internal standard for compounds 21 and 23, 100 ng/mL). Protein was precipitated with 200 μL of acetonitrile, and after 5 min of vortexing, the mixtures were centrifuged at 3700 rpm for 10 min. 120 µL of supernatant was taken and vortexed with 30 μL of water for 5 min, and a 5 μL sample was taken for LC/MS/MS analysis.

Series [4] concerns ERα expression. The settings on record: ER+ breast cancer cells highly expressing KAT6A; cited from earlier work.
In series [5] the test system is ER+ breast cancer. The settings on record: both in vitro and in vivo; cited from earlier work.

Sequence of human KAT6A (Q92794 whole entry): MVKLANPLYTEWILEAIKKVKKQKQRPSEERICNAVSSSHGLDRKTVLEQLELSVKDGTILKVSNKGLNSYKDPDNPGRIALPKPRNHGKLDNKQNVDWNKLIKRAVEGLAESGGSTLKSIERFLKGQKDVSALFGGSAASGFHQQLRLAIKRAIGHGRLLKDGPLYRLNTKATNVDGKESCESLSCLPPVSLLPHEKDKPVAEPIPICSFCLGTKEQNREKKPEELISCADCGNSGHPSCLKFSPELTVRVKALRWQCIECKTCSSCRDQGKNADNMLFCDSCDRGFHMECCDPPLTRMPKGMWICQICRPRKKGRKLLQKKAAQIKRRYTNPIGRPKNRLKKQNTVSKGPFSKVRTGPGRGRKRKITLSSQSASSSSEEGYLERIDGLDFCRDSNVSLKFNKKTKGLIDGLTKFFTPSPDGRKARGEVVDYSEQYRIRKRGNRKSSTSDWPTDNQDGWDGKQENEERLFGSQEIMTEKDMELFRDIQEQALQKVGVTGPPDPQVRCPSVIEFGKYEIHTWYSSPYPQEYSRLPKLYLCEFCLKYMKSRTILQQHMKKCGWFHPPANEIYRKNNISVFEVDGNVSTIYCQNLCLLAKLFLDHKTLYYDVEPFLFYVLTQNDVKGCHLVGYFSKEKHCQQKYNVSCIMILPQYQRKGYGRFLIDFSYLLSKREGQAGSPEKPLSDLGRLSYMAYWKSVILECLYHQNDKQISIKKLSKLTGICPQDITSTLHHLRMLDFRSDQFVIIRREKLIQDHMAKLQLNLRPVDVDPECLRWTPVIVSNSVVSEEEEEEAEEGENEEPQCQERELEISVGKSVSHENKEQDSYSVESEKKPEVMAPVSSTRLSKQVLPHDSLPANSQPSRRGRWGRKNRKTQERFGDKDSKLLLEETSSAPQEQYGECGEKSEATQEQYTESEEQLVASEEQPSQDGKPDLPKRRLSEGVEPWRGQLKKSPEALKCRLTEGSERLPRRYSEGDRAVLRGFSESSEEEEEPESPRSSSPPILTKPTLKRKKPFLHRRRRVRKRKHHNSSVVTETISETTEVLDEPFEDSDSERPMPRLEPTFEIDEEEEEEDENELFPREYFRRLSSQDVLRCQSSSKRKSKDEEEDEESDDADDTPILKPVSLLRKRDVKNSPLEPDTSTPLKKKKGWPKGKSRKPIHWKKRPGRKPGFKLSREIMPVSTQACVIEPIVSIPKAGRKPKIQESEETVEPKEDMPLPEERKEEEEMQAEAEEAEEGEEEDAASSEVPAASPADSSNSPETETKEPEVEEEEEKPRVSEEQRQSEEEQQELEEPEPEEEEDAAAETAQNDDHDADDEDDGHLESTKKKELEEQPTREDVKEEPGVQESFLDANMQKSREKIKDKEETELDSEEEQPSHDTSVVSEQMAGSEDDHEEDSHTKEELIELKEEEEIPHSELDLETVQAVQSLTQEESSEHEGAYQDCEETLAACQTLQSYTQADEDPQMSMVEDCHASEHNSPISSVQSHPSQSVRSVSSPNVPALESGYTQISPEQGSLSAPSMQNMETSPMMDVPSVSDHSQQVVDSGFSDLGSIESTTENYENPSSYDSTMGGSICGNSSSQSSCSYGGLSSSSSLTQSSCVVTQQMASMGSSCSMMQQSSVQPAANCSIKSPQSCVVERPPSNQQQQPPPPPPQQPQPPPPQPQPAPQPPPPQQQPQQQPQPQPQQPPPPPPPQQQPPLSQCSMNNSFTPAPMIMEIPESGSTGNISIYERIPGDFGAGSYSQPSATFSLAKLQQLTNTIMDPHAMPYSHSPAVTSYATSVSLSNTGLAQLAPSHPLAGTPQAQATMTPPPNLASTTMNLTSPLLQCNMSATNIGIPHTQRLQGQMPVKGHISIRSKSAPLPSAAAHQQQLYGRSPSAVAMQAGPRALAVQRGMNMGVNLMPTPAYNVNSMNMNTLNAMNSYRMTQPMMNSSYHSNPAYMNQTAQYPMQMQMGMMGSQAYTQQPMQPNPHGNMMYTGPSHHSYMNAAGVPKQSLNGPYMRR

Turning to `COc1cc2c(cc1S(=O)(=O)Nc1noc3cc(Cn4cccn4)c4c(c13)OCCC4)CCC2` [Compound 6, N-(5-((1H-pyrazol-1-yl)methyl)-3,4-dihydro-2H-chromeno[8,7-d]isoxazol-9-yl)-6-methoxy-2,3-dihydro-1H-indene-5-sulfonamide], the figures for the pIC50 in series [1] and in series [2] (ZR-75-1 proliferation) were 9.40 and 9.22, respectively. Moreover, the Emax in series [2] (inhibition of ZR-75-1 proliferation, read-out: Maximum inhibition rate/Imax %) was determined as 95.4%.
`Cc1ccc(S(=O)(=O)Nc2noc3cc(Cn4cccn4)c4c(c23)OCC4)c(OCC(F)(F)F)c1` [Compound 21, N-(4-((1H-pyrazol-1-yl)methyl)-2,3-dihydrobenzofuro[7,6-d]isoxazol-8-yl)-4-methyl-2-(2,2,2-trifluoroethoxy)benzenesulfonamide] showed a pIC50 in series [1] of 8.34. In addition, the Vd/F in series [3] (read-out: Apparent distribution volume Vz/F) came to 0.496 L/kg. Further, in series [3] (read-out: Area under curve AUC0-t), the AUC(0-t) came to 43700 ng·h/mL. Besides, the CL/F in series [3] (read-out: Clearance rate CL/F) was found to be 0.788 mL/min/kg. Besides, the half-life in series [3] (read-out: Half-life T½ (converted)) was 9.58 h. Also, the Cmax in series [3] (read-out: Plasma concentration Cmax) was determined as 4310 ng/mL.
For `COc1cccc(OC)c1S(=O)(=O)Nc1noc2cc(Cn3cccn3)cc(OC)c12` [CTx-648], the ERα expression entry in series [4] was “can down-regulate ERα expression”. Also, in series [5], the “anti-tumor activity in ER+ breast cancer” value is on record as “shows anti-tumor activity”.
